23 molecules from patent publication US20230295096A1, “PYRAZOLE CARBOXAMIDE COMPOUNDS FOR TREATMENT OF HBV” (ASSEMBLY BIOSCIENCES, INC., priority 2020, published 2023) can be followed below.

pEC50: −log10 of the molar value.

As a reminder, the pEC50 is −log10 of the EC50, conventionally taken in molar units.

One experiment relates to HBV. As to the kind of experiment: Viral load production from HepAD38 cells, qPCR of the HBV core sequence in supernatant. In kind it is cell-based. The settings on record: HepAD38 cells, 5 days, HBV DNA in supernatant by qPCR; Table 1 ranges; read-out: Activity (viral load lowering EC50). As to the method: HepAD38 cells grown in a T-150 flask (Corning, cat#: 430825) with Growth Medium (DMEM/F12 (1:1) (Hyclone, cat#: SH30023.02), 1X Pen/Strep (Invitrogen, cat#: 15140-122), 10% FBS (Tissue Culture Biologics, cat#: 101), 250 µg/mL G418 (Alfa Aesar, cat#: J62671), 1 µg/mL Tetracycline (Teknova, cat#: T3320)) were detached with 0.25% trypsin-EDTA (Invitrogen, cat#: 25200-056). Tetracycline-free treatment medium (15 mL DMEM/F12 (1:1) 1× Pen/step, with 2% FBS, Tet-system approved (Clontech, cat#: 631106) were then added to mix, transferred into a 50 ml conical tube (Falcon, cat#: 21008-918,) and spun at 1300 rpm for 5 min. Pelleted cells were then re-suspended/washed with 50 mL of 1X DPBS (Invitrogen, cat#: 14190-136) 2 times and 50 mL treatment medium twice. HepAD38 cells were then re-suspended with 10 mL of treatment medium, syringed and counted. Wells of 96-well clear bottom TC plate (Corning, cat#: 3904,) were seeded at 50.000 cells/well in 180 µL of treatment medium, and 20 µL of either 10% DMSO (Sigma, cat#: D4540) as controls or a 10X solution of test compounds in 10% DMSO in treatment media was added for a final compound concentration starting at 10 µM, and plates were incubated in 5% CO2 incubator at 37° C. for 5 days.
Subsequently viral load production was assayed by quantitative PCR (qPCR) of the HBV core sequence. PCR reaction mixture containing forward primers HBV-f 5′-CTGTGCCTTGGGTGGCTTT-3′ (IDT DNA), Reverse primers HBV-r 5′-[…]-3′ (IDT DNA), Fluorescent TaqMan^tm Probes HBV-probe 5′-FAM/AGCTCCAAA/ZEN/[…]/3IABkFQ-3′ (IDT DNA), 10 µL/well of PerfeCTa® qPCR ToughMix® (Quanta Biosciences, Cat#: 95114-05 K), and 6 µL/well of DEPC water (Alfa Aesar, cat#: J62087) was prepared. Four µL of supernatant was added to 16 µL of the reaction mixture in a qPCR plate (Applied Biosytems, Cat#: 4309849), sealed with a film (Applied Biosystems, Cat#: 4311971), centrifuged for a few seconds, and subsequently run on an Applied Biosystems VIIA7. The PCR mixture was incubated at 45° C. for 5 min, then 95° C. for 10 min, followed by 40 cycles of 10 seconds at 95° C. and 20 seconds at 60° C. Viral load was quantified against known HBV DNA standards by using ViiA™ 7 Software. Viral load in the supernatant from wells with treated cells were compared against viral load in supernatant from DMSO control wells (≥ 3 per plate). Cell viability assay was performed with CellTiter-Glo Luminescent Cell Viability Assay (Promega, cat#: G7573) with modification. Mixed appropriate amount of CellTiter-Glo (CTG) 1X DPBS in a 1:1 ratio, added 100 uL of the mixture to each well followed completely removal of all supernatant in each well without touching cell surface. Incubated the plate at room temperature for 10 min on an orbital shaker, and then read the plate with a plate reader (TECAN M1000 or Envision). EC50 or CC50 values were calculated through curve-fitting of the four-parameter nonlinear-logistic-regression model (GraphPad Prism or Dotmatics). CC50 values were all >10 µM.
In the case of `CN(C)C(=O)NCC1CC2CC(c3nn(C)c(N)c3C(=O)Nc3ccc(F)c(Cl)c3)CC2C1` (single isomer, unassigned) [Example 43, 5-Amino-N-(3-chloro-4-fluorophenyl)-3-(5-((3,3-dimethylureido)methyl)octahydropentalen-2-yl)-1-methyl-1H-pyrazole-4-carboxamide], the pEC50 was over 8.00.

Still in this experiment, the particulars now being: Hepatitis B virus, HePAD38, 120 h, HepAD38 cells, 5 days, HBV DNA in supernatant by qPCR; Table 1 ranges; read-out: Activity (viral load lowering EC50).
For `Cn1nc(C2CC3CC(O)(Cc4ccccn4)CC3C2)c(C(=O)Nc2ccc(F)c(Cl)c2)c1N` (centres unmarked) [Example 164], the negative logarithm of the EC50 (pEC50) was 7.30 to 8.00.
On the same count and under the same terms, then `Cn1nc(C2CC3CC4(CNC(=O)N4)CC3C2)c(C(=O)Nc2ccc(F)c(Cl)c2)c1N` (centres unmarked) [Example 114, 5-Amino-N-(3-chloro-4-fluorophenyl)-1-methyl-3-(2-oxohexahydro-1′H-spiro[imidazolidine-4,2′-pentalen]-5′-yl)-1H-pyrazole-4-carboxamide], with 6.30 to 7.30; and `Cn1nc(C2CC3CC(CNC(=O)C(C)(C)C(F)(F)F)CC3C2)c(C(=O)Nc2ccc(F)c(Cl)c2)c1N` (centres unmarked) [Example 66, 5-Amino-N-(3-chloro-4-fluorophenyl)-1-methyl-3-(5-((3,3,3-trifluoro-2,2-dimethylpropanamido)methyl)octahydropentalen-2-yl)-1H-pyrazole-4-carboxamide], with 7.30 to 8.00; and `Cn1nc(C2CC3CC(CNS(=O)(=O)C4CCS(=O)(=O)CC4)CC3C2)c(C(=O)Nc2ccc(F)c(Cl)c2)c1N` (centres unmarked) [Example 97, 5-Amino-N-(3-chloro-4-fluorophenyl)-3-(5-(((1,1-dioxidotetrahydro-2H-thiopyran)-4-sulfonamido)methyl)octahydropentalen-2-yl)-1-methyl-1H-pyrazole-4-carboxamide], with 7.30 to 8.00.
As to `Cn1nc(C2CC3CC(O)(c4nc(C(F)(F)F)cs4)CC3C2)c(C(=O)Nc2ccc(F)c(Cl)c2)c1N` (centres unmarked) [Example 149], the pEC50 is 7.30 to 8.00.
As for `Cn1nc(C2CC3CC(CNC(=O)C4(C)COC4)CC3C2)c(C(=O)Nc2ccc(F)c(Cl)c2)c1N` (centres unmarked) [Example 64, 5-Amino-N-(3-chloro-4-fluorophenyl)-1-methyl-3-(5-((3-methyloxetane-3-carboxamido)methyl)octahydropentalen-2-yl)-1H-pyrazole-4-carboxamide], the pEC50 was over 8.00.
As for `CC(C)C(=O)NCC1CC2CC(c3nn(C)c(N)c3C(=O)Nc3ccc(F)c(Cl)c3)CC2C1` (centres unmarked) [Example 45, 5-Amino-N-(3-chloro-4-fluorophenyl)-3-(5-(isobutyramidomethyl)octahydropentalen-2-yl)-1-methyl-1H-pyrazole-4-carboxamide], the negative-log EC50 (pEC50) is over 8.00.
The same measure, in the same setting: under `Cn1nc(C2CC3CC(CNS(=O)(=O)C(F)(F)F)CC3C2)c(C(=O)Nc2ccc(F)c(Cl)c2)c1N` (centres unmarked) [Example 93, 5-Amino-N-(3-chloro-4-fluorophenyl)-1-methyl-3-(5-(((trifluoromethyl)sulfonamido)methyl)octahydropentalen-2-yl)-1H-pyrazole-4-carboxamide] stands 7.30 to 8.00; under `Cn1nc(C2CC3CC(CNC(=O)C(C)(C)CO)CC3C2)c(C(=O)Nc2ccc(F)c(Cl)c2)c1N` (centres unmarked) [Example 67, 5-Amino-N-(3-chloro-4-fluorophenyl)-3-(5-((3-hydroxy-2,2-dimethylpropanamido)methyl)octahydropentalen-2-yl)-1-methyl-1H-pyrazole-4-carboxamide], over 8.00.
Turning to `Cn1nc(C2CC3CC(CNC(=O)C(C)(C)O)CC3C2)c(C(=O)Nc2ccc(F)c(Cl)c2)c1N` (single isomer, unassigned) [Example 39, 5-Amino-N-(3-chloro-4-fluorophenyl)-3-(5-((2-hydroxy-2-methylpropanamido)methyl)octahydropentalen-2-yl)-1-methyl-1H-pyrazole-4-carboxamide], the negative logarithm of the EC50 (pEC50) was over 8.00.
As for `COC(=O)NCC1CC2CC(c3nn(C)c(N)c3C(=O)Nc3ccc(F)c(Cl)c3)CC2C1` (centres unmarked) [Example 48, Methyl ((5-(5-amino-4-((3-chloro-4-fluorophenyl)carbamoyl)-1-methyl-1H-pyrazol-3-yl)octahydropentalen-2-yl)methyl)carbamate], the negative-log EC50 (pEC50) is over 8.00.
On the same count and under the same terms, under `Cc1ccc(C2(O)CC3CC(c4nn(C)c(N)c4C(=O)Nc4ccc(F)c(C#N)c4)CC3C2)cc1` (centres unmarked) [Example 7, 5-Amino-N-(3-cyano-4-fluorophenyl)-3-(5-hydroxy-5-(p-tolyl)octahydropentalen-2-yl)-1-methyl-1H-pyrazole-4-carboxamide] stands over 8.00; under `Cn1nc(C2CC3CC(O)(c4cc[nH]n4)CC3C2)c(C(=O)Nc2ccc(F)c(Cl)c2)c1N` (centres unmarked) [Example 178], over 8.00.
`Cn1nc(C2CC3CC(CNC(=O)c4ccc(C(F)(F)F)cc4)CC3C2)c(C(=O)Nc2ccc(F)c(Cl)c2)c1N` (centres unmarked) [Example 57, 5-Amino-N-(3-chloro-4-fluorophenyl)-1-methyl-3-(5-((4-(trifluoromethyl)benzamido)methyl)octahydropentalen-2-yl)-1H-pyrazole-4-carboxamide]: the negative-log EC50 (pEC50) is 7.30 to 8.00.
Still for that read-out and setting: under `Cn1nc(C2CC3CC(Oc4ncccn4)CC3C2)c(C(=O)Nc2ccc(F)c(Cl)c2)c1N` (centres unmarked) [Example 231] stands 7.30 to 8.00.
As for `Cn1nc(C2CC3CN(C(=O)OC4CC(F)(F)C4)CC3C2)c(C(=O)Nc2ccc(F)c(Cl)c2)c1N` (centres unmarked) [Example 118, 3,3-Difluorocyclobutyl 5-(5-amino-4-((3-chloro-4-fluorophenyl)carbamoyl)-1-methyl-1H-pyrazol-3-yl)hexahydrocyclopenta[c]pyrrole-2(1H)-carboxylate], the pEC50 is 6.30 to 7.30.
On the same count and under the same terms, under `Cc1noc(C2(O)CC3CC(c4nn(C)c(N)c4C(=O)Nc4ccc(F)c(Cl)c4)CC3C2)n1` (centres unmarked) [Example 179] stands over 8.00.
Still for that read-out and setting: then `Cn1nc(C2CC3CN(C(=O)NCc4cccc(F)c4)CC3C2)c(C(=O)Nc2ccc(F)c(Cl)c2)c1N` (centres unmarked) [Example 131, 5-(5-Amino-4-((3-chloro-4-fluorophenyl)carbamoyl)-1-methyl-1H-pyrazol-3-yl)-N-(3-fluorobenzyl)hexahydrocyclopenta[c]pyrrole-2(1H)-carboxamide], with 7.30 to 8.00; and `C[C@H](NC1CC2CC(c3nn(C)c(N)c3C(=O)Nc3ccc(F)c(Cl)c3)CC2C1)C(F)(F)F` (stereo partly drawn) [Example 100, 5-Amino-N-(3-chloro-4-fluorophenyl)-1-methyl-3-(5-(((S)-1,1,1-trifluoropropan-2-yl)amino)octahydropentalen-2-yl)-1H-pyrazole-4-carboxamide], with 7.30 to 8.00; and `Cn1nc(C2CC3CC(N4CCC(F)(C(N)=O)CC4)CC3C2)c(C(=O)Nc2ccc(F)c(Cl)c2)c1N` (centres unmarked) [Example 185], with 7.30 to 8.00.
On the same count and under the same terms, under `Cn1nc(C2CC3CN(C(=O)OC4COC4)CC3C2)c(C(=O)Nc2ccc(F)c(Cl)c2)c1N` (centres unmarked) [Example 119, Oxetan-3-yl 5-(5-amino-4-((3-chloro-4-fluorophenyl)carbamoyl)-1-methyl-1H-pyrazol-3-yl)hexahydrocyclopenta[c]pyrrole-2(1H)-carboxylate] stands 7.30 to 8.00.

The same experiment, now with this note: Hepatitis B virus, HePAD38, 120 h, HepAD38 cells, 5 days, HBV DNA in supernatant by qPCR; Table 2 ranges; read-out: VL HepAD38 EC50 range.
For the molecule `Cn1nc(C2CC3CC3C2)c(C(=O)Nc2ccc(F)c(Cl)c2)c1N` (centres unmarked) [Example 139, 5-Amino-3-(bicyclo[3.1.0]hexan-3-yl)-N-(3-chloro-4-fluorophenyl)-1-methyl-1H-pyrazole-4-carboxamide], the pEC50 is over 7.00.
